Data as given in patent EP1996603B1, “LIPID A ANTAGONISTS WITH ANTI-SEPTIC SHOCK, ANTI-INFLAMMATORY, ANTI-ISCHEMIA AND ANALGESIC ACTIVITY” (Università Degli Studi Di Milano - Bicocca, priority 2006, dated 2007).

Assays:
[1] = Solubility in the aqueous media used in the tests; format: physicochemical; settings: compared with Ia and Ic
[2] = target: T1, TLR9 (Homo sapiens, UniProt Q9NR96); assay: NF-kB activation in HEK-293 cells transfected with TLR9, stimulated with CpG; format: cell-based; settings: TLR9-transfected HEK 293; CpG (0.5 µM); maximal dose of 50 µM; measured 2 h later
T1 construct: host or cells: HEK-293 (HEK-293-hTLR9A)
T1 sequence (Q9NR96 26-1032): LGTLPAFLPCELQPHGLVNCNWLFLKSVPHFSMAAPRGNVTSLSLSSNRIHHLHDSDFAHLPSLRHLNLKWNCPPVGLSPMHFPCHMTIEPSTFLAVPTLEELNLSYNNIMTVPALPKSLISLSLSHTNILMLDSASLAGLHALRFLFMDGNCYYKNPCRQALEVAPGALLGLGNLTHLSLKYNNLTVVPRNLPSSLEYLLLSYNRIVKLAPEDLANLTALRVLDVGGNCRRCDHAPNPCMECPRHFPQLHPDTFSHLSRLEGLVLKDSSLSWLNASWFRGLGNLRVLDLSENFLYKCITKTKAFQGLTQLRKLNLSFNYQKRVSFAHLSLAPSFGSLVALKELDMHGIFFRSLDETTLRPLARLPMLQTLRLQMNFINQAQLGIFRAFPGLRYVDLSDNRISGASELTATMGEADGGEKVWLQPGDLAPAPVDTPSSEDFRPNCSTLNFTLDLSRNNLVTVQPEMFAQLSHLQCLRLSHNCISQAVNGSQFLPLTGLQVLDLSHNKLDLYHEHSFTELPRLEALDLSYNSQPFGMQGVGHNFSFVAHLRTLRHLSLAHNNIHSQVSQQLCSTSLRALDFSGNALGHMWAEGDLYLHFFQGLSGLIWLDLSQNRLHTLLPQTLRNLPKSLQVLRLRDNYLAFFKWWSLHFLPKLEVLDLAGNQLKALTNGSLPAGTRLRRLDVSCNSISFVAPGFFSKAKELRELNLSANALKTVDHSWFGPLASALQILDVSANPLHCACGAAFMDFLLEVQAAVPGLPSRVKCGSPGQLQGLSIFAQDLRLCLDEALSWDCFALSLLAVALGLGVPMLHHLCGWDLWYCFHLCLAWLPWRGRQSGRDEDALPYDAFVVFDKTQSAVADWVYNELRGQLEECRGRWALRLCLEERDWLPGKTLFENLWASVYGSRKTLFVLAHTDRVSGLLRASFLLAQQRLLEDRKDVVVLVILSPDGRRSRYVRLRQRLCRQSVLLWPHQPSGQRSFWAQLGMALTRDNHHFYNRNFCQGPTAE
Method: • Figure 1. Antagonistic activity of compounds Ia, Ic and Id on lipid A-stimulated cytokine production in BMDC, BMØ and D1 cells. TNFα production was measured in the supernatants 24 h later. From the right: lipid A (0.5µM), cells treated with lipid A alone; DMSO: cells incubated in the presence of complete medium plus DMSO; inhibitor 50 µM, cells treated only with monosaccharides Ia, Ic and Id; other columns, lipid A + compounds […] at increasing doses. The data represent means and standard deviations of triplicate wells. This is a representative of three independent experiments. *, p < 0.05; **, p < 0.01; ***, p< 0.001. • Figure 2. TLR-4 selectivity of monosaccharide Id. […] IL-1β was measured in the supernatants by ELISA. […] Lower panels, TNFα production measured by ELISA 24 h after stimulation with CpG (selective for TLR-9) or PAM3Cys-SK4 (selective for TLR-2) in the presence of compound Id. […] The cells were then analyzed by FACS for the presence of annexin V and propidium iodide (PI) double positive cells. […] NF-kB activation was evaluated in the nuclear extract 2 h later and expressed as optical density (OD) at 450 nm. […] Effect of different doses of compound Id on carrageenan induced edema in mice measured 4h after the exposure and expressed as difference between the paw volume of treated paw versus the contralateral paw. […]

Question: For `CCCCCCCCCCCCCCO[C@H]1[C@@H](OC)O[C@H](C[N+](C)(C)C2CCCC2)[C@@H](O)[C@@H]1OCCCCCCCCCCCCCC` [Compound Id, methyl 6-deoxy-6-N,N',N"-dimethylcyclopentylammonium-2,3-di-O-tetradecyl-α-D-glucopyranoside], which “solubility in the aqueous media used in the tests” value [1] is on record?
Answer: highest solubility

Question: What about the NF-kB activation [2] of the same molecule?
Answer: inactive
